Measured values reported in patent US20240018102A1, “COMPOUNDS AND COMPOSITIONS FOR TREATING CONDITIONS ASSOCIATED WITH LPA RECEPTOR ACTIVITY” (Lhotse Bio, Inc., priority 2020, published 2024).

What follows are molecules tested against T1, human LPA1 (Homo sapiens, UniProt Q92633) (assay: In vitro LPA1 calcium flux antagonist assay, Bioduro protocol). Details: CHO-K1 cells overexpressing human LPA1 and G15a; LPA challenge at EC80; calcium mobilization on FLIPR Tetra; read-out: IC50 (nM) in Assay B2.
T1 construct: expressed in transfected cells; host or cells: CHO-K1
Type: cell-based
Protocol: In Vitro LPA1 Calcium Flux Antagonist Assay Bioduro Protocol
CHO-K1 cells overexpressing human LPA1 and G15a were seeded at a total volume of 20 uL (15000 cells/well) into Matrigel pre-coated 384-well plates (coming -3764) and incubated at 37° C. After overnight incubation, the cells were serum starved for 4 h. Assays were performed in dye loading buffer containing 1× Fluo-8 AM (AAT Bioquest, 21080) and 2.5 mM probenecid (Thermo Fisher, 36400) in HBSS/20 mM Hepes. After cell starvation, the medium was replaced with 20 uL of dye loading buffer and incubated at 37° C. for 30 min. Then 5 uL of 5× compound titrated in dye loading buffer was added to the cells and incubated for 30 min followed by LPA challenge at EC80. Calcium mobilization was measured on a FLIPR Tetra (MDS). For LPA EC80 determination, starved cells were incubated with 20 uL of dye loading buffer for 1 h, then 5 uL of 5×LPA titrated in dye loading buffer was added to the cells. Calcium signals induced by LPA was monitors on a FLIPR.
Percentage inhibition is calculated using the following formula:
% Inhibition=100%×(1−(mean RFU of test sample−mean RFU of DMSO)/(mean RFU of LPA control−mean RFU of DMSO)).

T1 sequence (Q92633 whole entry): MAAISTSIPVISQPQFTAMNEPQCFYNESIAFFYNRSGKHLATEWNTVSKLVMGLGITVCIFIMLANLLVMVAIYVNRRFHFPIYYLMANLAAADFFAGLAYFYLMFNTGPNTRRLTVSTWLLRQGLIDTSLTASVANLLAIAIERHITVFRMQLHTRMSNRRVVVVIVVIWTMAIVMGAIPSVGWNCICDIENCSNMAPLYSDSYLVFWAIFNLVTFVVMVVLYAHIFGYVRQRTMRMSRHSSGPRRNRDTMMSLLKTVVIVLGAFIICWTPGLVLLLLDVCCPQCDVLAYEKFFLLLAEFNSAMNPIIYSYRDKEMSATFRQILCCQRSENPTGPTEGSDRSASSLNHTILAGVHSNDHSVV

SMILES	IC50 [nM]
COc1cc([C@@H](O)[C@H](Cc2cc3cccc(C(=O)O)n3n2)OC2CCCC2)cc(OC)c1C [Compound 169, 2-((2S,3R)-2-(cyclopentyloxy)-3-(3,5-dimethoxy-4-methylphenyl)-3-hydroxypropyl)pyrazolo[1,5-a]pyridine-7-carboxylic acid]	150
COc1cc([C@@H](O)[C@H](Cc2nc3c(C(=O)O)cc(OC)c(F)c3s2)OC2CCCC2)cc(OC)c1C [Compound 279]	2.71
COc1cc([C@@H](O)[C@H](Cn2nnc3c(C(=O)O)cccc32)OC2CCCC2)cc(OC)c1C [Compound 213]	≥ 10000
CCc1cc(C(=O)O)c2nc(C[C@H](OCC(C)C)[C@H](O)c3cc(OC)c(C)c(OC)c3)sc2c1 [Compound 254]	8.93
COc1cc([C@@H](O)[C@H](Cn2cc3nccc(C(=O)O)c3n2)OCC(C)C)cc(OC)c1C [Compound 211]	459
COc1cc(C(=O)O)c2nc(C[C@H](OC3Cc4ccccc4C3)[C@H](O)c3cc(OC)c(C)c(OC)c3)sc2c1 [Compound 274]	3.71
COc1cc([C@@H](O)[C@H](Cn2cc3cccc(C(=O)O)c3n2)OC2CCCC2)cc(OC)c1OC [Compound 147]	126
COc1cc([C@@H](O)[C@H](Cn2cc3cccc(C(=O)O)c3n2)OC2CCCCC2)ccc1C(F)F [Compound 148]	525
CCc1cc(C(=O)O)c2nc(C[C@H](OC3CCCC3)[C@H](O)c3cc(OC)c(C)c(OC)c3)cn2c1 [Compound 230]	872
COc1cc([C@@H](O)[C@H](Cc2nc3c(C(=O)O)cccc3s2)OC2CCCC2)cc(OC)c1C [Compound 157, 2-((2S,3R)-2-(cyclopentyloxy)-3-(3,5-dimethoxy-4-methylphenyl)-3-hydroxypropyl)benzo[d]thiazole-4-carboxylic acid]	6.3
COc1cc([C@@H](O)[C@H](Cc2cn3cccc(C(=O)O)c3n2)OC2CCCC2)cc(OC)c1C [Compound 248]	≥ 10000
COc1cc([C@@H](O)[C@H](Cc2nc3c(C(=O)O)cc(F)cc3s2)OCC(C)C)cc(OC)c1C [Compound 262]	15.8
COc1cc([C@@H](O)C(Cc2nc(CC(=O)O)c(C(=O)O)s2)OC2CCCC2)cc(OC)c1C (stereo partly drawn) [Compound 206]	2120
CCc1cc(C(=O)O)n2nc(C[C@H](OCC(C)C)[C@H](O)c3cc(OC)c(C)c(OC)c3)cc2c1 [Compound 241]	26.7
COc1cc([C@@H](O)[C@H](Cn2cc3cncc(C(=O)O)c3n2)OC2CCCC2)cc(OC)c1C [Compound 159]	49.6
COc1cc([C@@H](O)[C@H](Cn2nnc3cccc(C(=O)O)c32)OC2CCCC2)cc(OC)c1C (racemic) [Compound 209]	812
CCc1cc(C(=O)O)c2nn(C[C@H](OC3CCCC3)[C@H](O)c3cc(OC)c(C)c(OC)c3)cc2c1 [Compound 172]	4.01
COc1cc([C@@H](O)[C@H](Cn2cc3c(C#N)ccc(C(=O)O)c3n2)OC2CCCC2)cc(OC)c1C [Compound 182]	79.2
COc1cc([C@@H](O)[C@H](Cn2cc3cc(C4CC4)cc(C(=O)O)c3n2)OC2CCCC2)cc(OC)c1C [Compound 166]	4.94
COc1cc([C@@H](O)[C@H](Cc2nc3c(C(=O)O)cc(C)cc3s2)OC2CCCC2)cc(OC)c1C [Compound 256]	4.12
COc1cc([C@@H](O)[C@H](Cn2cc3ccc(F)c(C(=O)O)c3n2)OC2CCCC2)cc(OC)c1C [Compound 155]	308
COc1cc([C@@H](O)[C@H](Cn2cc3cccc(C(=O)O)c3n2)OCC(C)C)cc(OC)c1C [Compound 146]	36.8
COc1cc([C@@H](O)[C@H](Cn2cc3cc(CNC(C)=O)cc(C(=O)O)c3n2)OC2CCCC2)cc(OC)c1C [Compound 220]	106

SMILES	IC50 [nM]
COc1cc([C@@H](O)[C@H](Cc2nc3c(C(=O)O)cc(C)cc3s2)OCC(C)C)cc(OC)c1C [Compound 234, 2-((2S,3R)-3-(3,5-dimethoxy-4-methylphenyl)-3-hydroxy-2-isobutoxypropyl)-6-methylbenzo[d]thiazole-4-carboxylic acid]	3.71
COc1cc([C@@H](O)[C@H](Cn2cc3cc(C#N)cc(C(=O)O)c3n2)OC2CCCC2)ccc1C(F)F [Compound 225]	29.3
COC(=O)c1sc(C[C@H](OC2CCCC2)[C@H](O)c2cc(OC)c(C)c(OC)c2)nc1CC(=O)O [Compound 152]	8.53
COc1cc([C@@H](O)[C@H](Cn2cc3nccc(C(=O)O)c3n2)OC2CCCC2)c(Cl)c(OC)c1C [Compound 202]	4260
COc1cc([C@@H](O)[C@H](Cc2nc3c(C(=O)O)cc(F)cc3s2)OC2CCCC2)cc(OC)c1C [Compound 266]	7.18
COc1cc([C@@H](O)[C@H](Cn2cc3c(OC)ccc(C(=O)O)c3n2)OC2CCCC2)cc(OC)c1C [Compound 216]	9.61
COc1cc([C@@H](O)[C@H](Cn2cc3nc(C4CC4)cc(C(=O)O)c3n2)OC2CCCC2)cc(OC)c1C [Compound 196]	16.3
COc1cc([C@@H](O)[C@H](Cn2cc3c(C(F)(F)F)ccc(C(=O)O)c3n2)OC2CCCC2)cc(OC)c1C [Compound 186]	7640
COc1cc([C@@H](O)[C@H](Cc2nc3c(C(=O)O)cc(C4CC4)cc3s2)OC2CCCC2)cc(OC)c1C [Compound 245]	2.51
COc1cc([C@@H](O)[C@H](Cn2cc3cc(C(F)(F)F)cc(C(=O)O)c3n2)OC2CCCC2)cc(OC)c1C [Compound 163]	4.23
COc1cc([C@@H](O)[C@H](Cc2cc3c(C(=O)O)cccc3s2)OC2CCCC2)cc(OC)c1C [Compound 265, 2-((2S,3R)-2-(cyclopentyloxy)-3-(3,5-dimethoxy-4-methylphenyl)-3-hydroxypropyl)benzo[b]thiophene-4-carboxylic acid]	22.7
COc1cc([C@@H](O)[C@H](Cn2cc3cc(C#N)cc(C(=O)O)c3n2)OC2CCCC2)cc(OC)c1C [Compound 165]	6.28
COc1cc([C@@H](O)[C@H](Cn2cc3cccc(C#N)c3n2)OC2CCCC2)cc(OC)c1C [Compound 183]	> 10000
COc1cc([C@@H](O)[C@H](Cc2nc3c(C(=O)O)cccc3s2)OC2Cc3ccccc3C2)cc(OC)c1C [Compound 273]	3.81
COc1cc([C@@H](O)[C@H](Cn2cc3nccc(C(=O)O)c3n2)OC2CCCC2)ccc1C(F)F [Compound 189]	454
COc1cc([C@@H](O)[C@H](Cc2nc3c(C(=O)O)cc(Cl)cc3s2)OC2CCCC2)cc(OC)c1C [Compound 246]	1.65
COc1cc(C(=O)O)c2nn(C[C@H](OC3CCCC3)[C@H](O)c3cc(OC)c(C)c(OC)c3)cc2n1 [Compound 197]	23.8
COc1cc(C(=O)O)c2nc(C[C@H](OC3CCCC3)[C@H](O)c3cc(OC)c(C)c(OC)c3)sc2c1 [Compound 247]	1.93
COc1cc([C@@H](O)[C@H](Cn2cc3c(=O)n(C)cc(C(=O)O)c3n2)OC2CCCC2)cc(OC)c1C [Compound 174]	103
COc1cc([C@@H](O)[C@H](Cc2cc3c(OC)ccc(C(=O)O)n3n2)OC2Cc3ccccc3C2)cc(OC)c1C [Compound 276]	5
COc1cc([C@@H](O)[C@H](Cn2cc3cccc(-c4nc(=O)o[nH]4)c3n2)OC2CCCC2)cc(OC)c1C [Compound 181]	> 10000
COc1cc([C@@H](O)[C@H](Cc2nc([C@H](C)C(=O)O)c(C)s2)OC2CCCC2)cc(OC)c1C (single isomer, unassigned) [Compound 239]	37.4
